Reference: ChEMBL document CHEMBL1201862, “PubChem BioAssay data set” (2004)
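Five compound concentrations were applied to cells in 96-well plates for 48 hours; endpoints were derived by simple linear interpolation of the resulting dose-response curve. GI50: concentration for 50% inhibition of growth.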 Calls of active or inactive are those of the source. Rule as the data show it: active = GI50 up to about 1.1 µM and inactive = higher.

Assays:
Experiment in all cases: NCI-60 cell line screen, 48 h
[1] = tested on: 786-0
[2] = tested on: A498
[3] = tested on: A549
[4] = tested on: ACHN
[5] = tested on: BT-549
[6] = tested on: CAKI-1
[7] = tested on: CCRF-CEM
[8] = tested on: COLO 205
[9] = tested on: DU-145
[10] = tested on: EKVX
[11] = tested on: HCC 2998
[12] = tested on: HCT-116
[13] = tested on: HCT-15
[14] = tested on: HL-60
[15] = tested on: HOP-62
[16] = tested on: HOP-92
[17] = tested on: HT-29
[18] = tested on: Hs-578T
[19] = tested on: IGROV-1
[20] = tested on: K562
[21] = tested on: KM12
[22] = tested on: LOX IMVI
[23] = tested on: MCF7
[24] = tested on: MDA-MB-435
[25] = tested on: MOLT-4
[26] = tested on: Malme-3M
[27] = tested on: NCI-H226
[28] = tested on: NCI-H23
[29] = tested on: NCI-H460
[30] = tested on: NCI-H522
[31] = tested on: NCI/ADR-RES
[32] = tested on: OVCAR-3
[33] = tested on: OVCAR-5
[34] = tested on: OVCAR-8
[35] = tested on: PC-3
[36] = tested on: RPMI-8226
[37] = tested on: RXF 393
[38] = tested on: SF-268
[39] = tested on: SF-295
[40] = tested on: SF-539
[41] = tested on: SK-MEL-28
[42] = tested on: SK-MEL-2
[43] = tested on: SK-MEL-5
[44] = tested on: SK-OV-3
[45] = tested on: SN12C
[46] = tested on: SNB-19
[47] = tested on: SNB-75
[48] = tested on: SR
[49] = tested on: SW-620
[50] = tested on: T47D
[51] = tested on: TK-10
[52] = tested on: U-251
[53] = tested on: UACC-257
[54] = tested on: UACC-62
[55] = tested on: UO-31
[56] = tested on: M14
[57] = tested on: MDA-MB-231
[58] = tested on: OVCAR-4

CC[N+]1(C)CCC(O)(/C=C/c2ccc(Cl)c(Cl)c2)C(C(=O)/C=C/c2ccc(Cl)c(Cl)c2)C1 (centres undefined)
GI50 [1]: 1.81 µM (inactive)
GI50 [2]: 2.52 µM (inactive)
GI50 [3]: 4.41 µM (inactive)
GI50 [4]: 1.98 µM (inactive)
GI50 [5]: 2.96 µM (inactive)
GI50 [6]: 4.07 µM (inactive)
GI50 [7]: 1.38 µM (inactive)
GI50 [8]: 2.65 µM (inactive)
GI50 [9]: 2.71 µM (inactive)
GI50 [10]: 11.1 µM (inactive)
GI50 [11]: 1.95 µM (inactive)
GI50 [12]: 1.57 µM (inactive)
GI50 [13]: 2.17 µM
GI50 [14]: 1.9 µM (inactive)
GI50 [15]: 2.49 µM (inactive)
GI50 [16]: 1.7 µM (inactive)
GI50 [17]: 2.07 µM (inactive)
GI50 [18]: 2.91 µM (inactive)
GI50 [19]: 2.96 µM (inactive)
GI50 [20]: 1.55 µM (inactive)
GI50 [21]: 1.88 µM (inactive)
GI50 [22]: 1.39 µM (inactive)
GI50 [23]: 2.36 µM (inactive)
GI50 [24]: 2.12 µM (inactive)
GI50 [25]: 2.28 µM (inactive)
GI50 [26]: 1.62 µM (inactive)
GI50 [27]: 4.08 µM (inactive)
GI50 [28]: 2.57 µM (inactive)
GI50 [29]: 2.99 µM (inactive)
GI50 [30]: 1.77 µM (inactive)
GI50 [31]: 2.51 µM (inactive)
GI50 [32]: 3.09 µM (inactive)
GI50 [33]: 2.62 µM (inactive)
GI50 [34]: 2.55 µM (inactive)
GI50 [35]: 2.18 µM (inactive)
GI50 [36]: 2.17 µM (inactive)
GI50 [37]: 2.04 µM (inactive)
GI50 [38]: 2.67 µM (inactive)
GI50 [39]: 4.14 µM (inactive)
GI50 [40]: 3.03 µM (inactive)
GI50 [41]: 2.15 µM (inactive)
GI50 [42]: 3.86 µM (inactive)
GI50 [43]: 2.68 µM (inactive)
GI50 [44]: 3.41 µM (inactive)
GI50 [45]: 1.88 µM (inactive)
GI50 [46]: 6.11 µM (inactive)
GI50 [47]: 3.78 µM (inactive)
GI50 [48]: 0.406 µM (active)
GI50 [49]: 1.91 µM (inactive)
GI50 [50]: 1.8 µM (inactive)
GI50 [51]: 2.43 µM (inactive)
GI50 [52]: 1.77 µM (inactive)
GI50 [53]: 2.38 µM (inactive)
GI50 [54]: 1.74 µM (inactive)
GI50 [55]: 1.83 µM (inactive)

COc1ccc(C(=O)Nc2ccc(O)c(=O)cc2)cc1
GI50 [1]: 51.1 µM (inactive)
GI50 [2]: < 0.01 µM (active)
GI50 [3]: 43.9 µM (inactive)
GI50 [4]: 23.7 µM (inactive)
GI50 [5]: 38.5 µM (inactive)
GI50 [6]: 36.9 µM (inactive)
GI50 [7]: 24 µM (inactive)
GI50 [8]: 24.2 µM (inactive)
GI50 [9]: 25.6 µM (inactive)
GI50 [10]: 21.4 µM (inactive)
GI50 [11]: 39.9 µM (inactive)
GI50 [12]: 33.1 µM (inactive)
GI50 [13]: 26.9 µM
GI50 [14]: 21.3 µM (inactive)
GI50 [15]: 80.9 µM (inactive)
GI50 [17]: 20.8 µM (inactive)
GI50 [18]: 29.2 µM (inactive)
GI50 [19]: 37.9 µM (inactive)
GI50 [20]: 32.4 µM (inactive)
GI50 [21]: 39.4 µM (inactive)
GI50 [22]: 38.7 µM (inactive)
GI50 [56]: 78 µM (inactive)
GI50 [23]: 21.5 µM (inactive)
GI50 [57]: 42.3 µM (inactive)
GI50 [24]: 43.4 µM (inactive)
GI50 [26]: 43.9 µM (inactive)
GI50 [27]: > 100 µM (inactive)
GI50 [28]: 89.7 µM (inactive)
GI50 [29]: 15.3 µM (inactive)
GI50 [30]: 25.8 µM (inactive)
GI50 [31]: 42.3 µM (inactive)
GI50 [32]: 27.6 µM (inactive)
GI50 [33]: > 100 µM (inactive)
GI50 [34]: 30.6 µM (inactive)
GI50 [35]: 40 µM (inactive)
GI50 [36]: 26.9 µM (inactive)
GI50 [37]: 13.6 µM (inactive)
GI50 [38]: 21 µM (inactive)
GI50 [39]: 37.8 µM (inactive)
GI50 [40]: 33.2 µM (inactive)
GI50 [41]: 22.5 µM (inactive)
GI50 [42]: 50.1 µM (inactive)
GI50 [43]: 41.6 µM (inactive)
GI50 [45]: 36.5 µM (inactive)
GI50 [46]: 36.1 µM (inactive)
GI50 [48]: 17.5 µM (inactive)
GI50 [49]: 30.7 µM (inactive)
GI50 [50]: < 0.01 µM (active)
GI50 [51]: 53 µM (inactive)
GI50 [52]: 38.7 µM (inactive)
GI50 [53]: 40.6 µM (inactive)
GI50 [54]: 32.5 µM (inactive)
GI50 [55]: 20.9 µM (inactive)

CC(C)(C)[C@@H]1NC(=O)CN1C(=O)OCc1ccccc1
GI50 [1]: > 100 µM (inactive)
GI50 [2]: > 100 µM (inactive)
GI50 [3]: > 100 µM (inactive)
GI50 [4]: > 100 µM (inactive)
GI50 [5]: > 100 µM (inactive)
GI50 [7]: > 100 µM (inactive)
GI50 [8]: > 100 µM (inactive)
GI50 [9]: > 100 µM (inactive)
GI50 [10]: > 100 µM (inactive)
GI50 [11]: > 100 µM (inactive)
GI50 [12]: > 100 µM (inactive)
GI50 [13]: > 100 µM
GI50 [14]: > 100 µM (inactive)
GI50 [15]: > 100 µM (inactive)
GI50 [16]: > 100 µM (inactive)
GI50 [17]: > 100 µM (inactive)
GI50 [18]: 0.661 µM (active)
GI50 [19]: > 100 µM (inactive)
GI50 [20]: > 100 µM (inactive)
GI50 [21]: > 100 µM (inactive)
GI50 [22]: > 100 µM (inactive)
GI50 [56]: > 100 µM (inactive)
GI50 [23]: > 100 µM (inactive)
GI50 [57]: > 100 µM (inactive)
GI50 [24]: > 100 µM (inactive)
GI50 [25]: > 100 µM (inactive)
GI50 [26]: > 100 µM (inactive)
GI50 [27]: > 100 µM (inactive)
GI50 [28]: > 100 µM (inactive)
GI50 [29]: > 100 µM (inactive)
GI50 [30]: > 100 µM (inactive)
GI50 [31]: > 100 µM (inactive)
GI50 [58]: > 100 µM (inactive)
GI50 [33]: > 100 µM (inactive)
GI50 [34]: > 100 µM (inactive)
GI50 [35]: > 100 µM (inactive)
GI50 [36]: > 100 µM (inactive)
GI50 [37]: > 100 µM (inactive)
GI50 [38]: > 100 µM (inactive)
GI50 [39]: > 100 µM (inactive)
GI50 [40]: > 100 µM (inactive)
GI50 [41]: > 100 µM (inactive)
GI50 [42]: > 100 µM (inactive)
GI50 [43]: > 100 µM (inactive)
GI50 [44]: > 100 µM (inactive)
GI50 [45]: > 100 µM (inactive)
GI50 [46]: > 100 µM (inactive)
GI50 [47]: > 100 µM (inactive)
GI50 [48]: > 100 µM (inactive)
GI50 [49]: > 100 µM (inactive)
GI50 [50]: > 100 µM (inactive)
GI50 [51]: > 100 µM (inactive)
GI50 [52]: > 100 µM (inactive)
GI50 [53]: > 100 µM (inactive)
GI50 [54]: > 100 µM (inactive)
GI50 [55]: > 100 µM (inactive)
